Values of other authors, collected in EP0356866A2, “Phosphorus-containing squalene synthetase inhibitors and method” (E.R. SQUIBB & SONS, INC., priority 1988, dated 1990).

Biological target: T1, avian liver farnesyl diphosphate synthetase (Gallus gallus, UniProt P08836)
T1 construct: host or cells: avian liver
T1 sequence (P08836 1-367): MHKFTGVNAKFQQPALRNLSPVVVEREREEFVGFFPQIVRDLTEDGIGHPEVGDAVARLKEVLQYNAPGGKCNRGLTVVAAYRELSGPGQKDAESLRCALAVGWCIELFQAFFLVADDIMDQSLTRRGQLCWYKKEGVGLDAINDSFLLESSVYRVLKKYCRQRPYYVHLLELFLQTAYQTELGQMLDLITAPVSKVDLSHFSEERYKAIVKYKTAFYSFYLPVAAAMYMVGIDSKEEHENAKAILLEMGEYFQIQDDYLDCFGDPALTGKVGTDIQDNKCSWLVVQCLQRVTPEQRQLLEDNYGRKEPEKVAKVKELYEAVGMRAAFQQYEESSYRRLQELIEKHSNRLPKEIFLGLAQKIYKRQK
Settings: competitive inhibitors of the 1′-4-condensation between isopentenyl diphosphate and geranyl diphosphate

Compound | Ki [µM]
CC(C)=CCCP(=O)(O)CP(=O)(O)O [H] | 71
C=C(C)CCCP(=O)(O)CP(=O)(O)O [G] | 19
